Data taken from patent publication US20240343732A1, “COMPOUNDS FOR DEGRADATION OF CYCLIN-DEPENDENT KINASE 7(CDK7)” (QURIENT CO., LTD., priority 2021, published 2024).

How the values were obtained:
CDK2 = biological target: T1, CDK2 (Homo sapiens, UniProt P24941); assay: Binding assay (FRET, LanthaScreen Eu, Tracer236) for CDK2; conditions: for IC50: read-out: CDK2 IC50 (enzyme binding assay)
T1 construct: His; purchased Invitrogen PR4448B
Method: (§1) Inhibition activity of compound to CDK7 kinase was tested in a binding assay which was applied to the FRET (fluorescence resonance energy transfer) principle from the europium (Eu) donor fluorophore to the acceptor fluorophore on the kinase tracer. Test compounds were made to 1.125 mM of compound solution, and then this compound solution 4-fold serial diluted in 8 steps using an automated liquid handler (JANUS™, PerkinElmer). 80 nL/well of each diluted compound solution was added into the 384-well plate (Greiner, Cat #784075) first and 7.5 ul/well of working solution [5 nM of CDK7/CycH/MNAT1 (Invitrogen, Cat #PR6749B), 4 nM of Biotin anti-His Tag Antibody (Invitrogen, Cat #PV6090), and LanthaScreen® Eu-Streptavidin (Invitrogen, Cat #PV6025)] was added. After mixing the solution well, the same volume with the working solution of Tracer236 (Invitrogen, Cat #PV5592) was added into each well in the plate. The plate was incubated for 60 minutes at room temperature and then all the fluorescence were measured using Envision leader (Perkin Elmer, USA) [Laser as excitation light; […] as the first and the second emission filter]. Data was analysed using XL Fit software.
(§2) All of the synthesized compounds were screened in the above-mentioned assay procedure. To identify the inhibition activity of compounds for other CDKs including CDK1 (Invitrogen, Cat #PR4768C), CDK2 (Invitrogen, Cat #PR4448B) and CDK5 (Invitrogen, Cat #PR8543B) were tested using the same protocol under reasonable concentration of Tracer236 and kinases for each assay. The formula for the assay buffer summarized in below table.

CDK1 = biological target: T2, CDK1 (Homo sapiens, UniProt P06493); assay: Binding assay (FRET, LanthaScreen Eu, Tracer236) for CDK1; conditions: for IC50: read-out: CDK1 IC50 (enzyme binding assay)
T2 construct: His; purchased Invitrogen PR4768C
T2 sequence (P06493 whole entry): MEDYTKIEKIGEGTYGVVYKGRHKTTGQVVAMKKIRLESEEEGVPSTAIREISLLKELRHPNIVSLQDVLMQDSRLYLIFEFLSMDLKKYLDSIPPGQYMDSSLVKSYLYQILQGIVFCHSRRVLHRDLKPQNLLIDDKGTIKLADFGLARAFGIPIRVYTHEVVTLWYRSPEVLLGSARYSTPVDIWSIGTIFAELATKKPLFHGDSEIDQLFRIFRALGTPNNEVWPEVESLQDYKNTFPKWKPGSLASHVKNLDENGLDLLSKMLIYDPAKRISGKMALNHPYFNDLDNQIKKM
T2 sequence (P14635 whole entry partner): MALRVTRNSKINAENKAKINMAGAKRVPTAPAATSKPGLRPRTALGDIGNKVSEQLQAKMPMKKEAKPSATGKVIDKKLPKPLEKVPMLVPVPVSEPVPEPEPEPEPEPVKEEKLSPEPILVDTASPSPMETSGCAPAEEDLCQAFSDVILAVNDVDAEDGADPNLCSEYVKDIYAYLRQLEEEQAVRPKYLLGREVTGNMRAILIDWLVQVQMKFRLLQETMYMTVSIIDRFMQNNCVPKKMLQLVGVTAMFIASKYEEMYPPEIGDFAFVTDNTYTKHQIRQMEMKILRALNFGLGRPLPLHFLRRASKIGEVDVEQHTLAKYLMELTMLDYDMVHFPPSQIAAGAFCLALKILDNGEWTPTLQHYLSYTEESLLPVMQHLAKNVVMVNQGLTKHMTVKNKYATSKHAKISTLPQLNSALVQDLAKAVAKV
Method: as §1, §2

CDK7 protein = biological target: T3, CDK7 protein (Homo sapiens, UniProt P50613); assay: Western blot assay for CDK7 protein degradation in A2780 cells; format: cell-based; conditions: 24 hours; for DC50: read-out: Compound concentration that caused 50% CDK7 protein degradation in A2780 cells (DC50);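 as to all read-outs here: A is DC50 up to 100 nM B is 100 to 1000 nM C is above 1000 nM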
T3 construct: To verify endogenous CDK7 protein degradation; endogenous in cells; host or cells: A2780 (ECACC 93112519)
T3 sequence (P50613 whole entry): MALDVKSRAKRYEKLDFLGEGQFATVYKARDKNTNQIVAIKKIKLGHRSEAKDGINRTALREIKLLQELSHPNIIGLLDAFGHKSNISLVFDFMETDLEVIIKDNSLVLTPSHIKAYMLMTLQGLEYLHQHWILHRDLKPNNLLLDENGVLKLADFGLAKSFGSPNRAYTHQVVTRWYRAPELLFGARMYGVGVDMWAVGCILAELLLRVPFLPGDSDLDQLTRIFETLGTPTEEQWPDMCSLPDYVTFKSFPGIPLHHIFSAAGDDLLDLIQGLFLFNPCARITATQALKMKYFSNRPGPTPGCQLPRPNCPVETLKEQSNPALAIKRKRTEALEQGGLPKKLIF
Method: Human ovarian cancer cell line, A2780 (Cat #93112519) was obtained from ECACC. Cells were grown in RPMI-1640 media (Invitrogen, Cat #22400105) supplemented with 10% FBS (Hyclone, Cat #SH30084.03) and 1% penicillin/streptomycin (Hyclone, Cat #SV30010) and cultured at 37° C., 5% Co2 in a humidified chamber. All cell lines were routinely tested for mycoplasma.
To verify endogenous CDK7 protein degradation upon treatment of CDK7-specific degrader, the western blot assay was conducted a 24 hours' time period. 6×10^5 cells/well of A2780 cells were plated in 6-well plate. After 24 hours, the cells were treated with various concentrations of the compound corresponding range. DMSO solvent without compound served as a control and final DMSO concentration was not to exceed 0.1% of total volume. After 24 hours of incubation at 37° C., 5% Co2 incubator, cells were collected and lysed with 60 ul of lysis buffer. Collected lysates were incubated for 30 min on ice and collect supernatant through centrifugation at 12,000 rpm for 10 min at 4° C. The protein in lysates were quantified with BCA protein quantification kit (Pierce, Cat #23227) following manufacture's protocol. Cell lysates were diluted into 1 ug/ul of concentration with lysis buffer. 20 ug of protein was loaded to each well of 4˜12% Bis-Tris gel (Invitrogen, Cat #NP0336BOX) with MOPS running buffer (Invitrogen, Cat #NP0001). The proteins were transferred from gel to membrane and incubated with primary antibody as followed at 4° C. overnight; CDK7 (CST, Cat #2090S) and β-actin (Santa Cruz, Cat #sc-47778) 1:20,000. The signals were developed and acquired with ImageQuant™ LAS 4000.

CDK7/CycH/MNAT1 = biological target: T4, CDK7/CycH/MNAT1 (Homo sapiens, UniProt P50613); assay: Binding assay (FRET, LanthaScreen Eu, Tracer236) for CDK7; conditions: read-out: CDK7 IC50 (enzyme binding assay)
T4 construct: His; purchased Invitrogen PR6749B
T4 sequence (P50613 whole entry): as above
T4 sequence (P51946 whole entry partner): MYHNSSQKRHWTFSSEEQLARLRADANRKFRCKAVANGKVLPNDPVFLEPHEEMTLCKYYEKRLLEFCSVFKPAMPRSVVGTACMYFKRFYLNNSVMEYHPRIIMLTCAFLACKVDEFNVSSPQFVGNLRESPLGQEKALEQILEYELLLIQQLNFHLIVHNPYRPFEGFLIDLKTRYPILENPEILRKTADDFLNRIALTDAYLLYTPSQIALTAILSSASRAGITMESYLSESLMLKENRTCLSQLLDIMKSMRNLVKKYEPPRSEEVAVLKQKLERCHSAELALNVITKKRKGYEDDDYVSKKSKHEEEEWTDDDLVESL
T4 sequence (P51948 whole entry partner): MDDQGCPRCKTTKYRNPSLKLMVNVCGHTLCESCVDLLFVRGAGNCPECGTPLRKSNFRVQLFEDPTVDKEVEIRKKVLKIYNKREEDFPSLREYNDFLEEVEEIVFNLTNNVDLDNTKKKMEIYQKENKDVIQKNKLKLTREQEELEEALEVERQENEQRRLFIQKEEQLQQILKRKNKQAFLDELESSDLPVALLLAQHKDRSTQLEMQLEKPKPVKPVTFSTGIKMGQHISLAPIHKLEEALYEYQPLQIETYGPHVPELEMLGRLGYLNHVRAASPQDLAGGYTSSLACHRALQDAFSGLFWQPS
Method: as §1, §2

CDK5 = biological target: T5, CDK5 (Homo sapiens, UniProt Q00535); assay: Binding assay (FRET, LanthaScreen Eu, Tracer236) for CDK5; conditions: for IC50: read-out: CDK5 IC50 (enzyme binding assay)
T5 construct: His; purchased Invitrogen PR8543B
T5 sequence (Q00535 whole entry): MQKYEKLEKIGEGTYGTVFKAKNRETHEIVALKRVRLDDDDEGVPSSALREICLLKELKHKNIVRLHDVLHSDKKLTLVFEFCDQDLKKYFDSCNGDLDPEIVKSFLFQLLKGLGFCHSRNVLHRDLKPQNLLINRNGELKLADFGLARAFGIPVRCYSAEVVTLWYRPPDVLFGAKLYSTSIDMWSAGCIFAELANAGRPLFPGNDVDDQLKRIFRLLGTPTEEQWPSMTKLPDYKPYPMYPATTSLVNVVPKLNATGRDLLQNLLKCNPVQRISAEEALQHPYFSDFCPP
T5 sequence (Q15078 99-307 partner limits assumed): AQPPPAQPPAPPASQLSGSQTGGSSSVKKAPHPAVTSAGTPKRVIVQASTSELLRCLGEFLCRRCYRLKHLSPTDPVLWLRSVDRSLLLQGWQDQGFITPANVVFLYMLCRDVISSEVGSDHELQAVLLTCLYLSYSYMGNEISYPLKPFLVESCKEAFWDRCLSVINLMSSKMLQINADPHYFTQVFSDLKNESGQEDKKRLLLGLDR
Method: as §1, §2

Structure (SMILES) | CDK2/CDK7: Selectivity of CDK7 inhibition over CDK2 inhibition (CDK2) | IC50 (CDK2) | CDK1/CDK7: Selectivity of CDK7 inhibition over CDK1 inhibition (CDK1) | IC50 (CDK1) | DC50 (CDK7 protein) | IC50 (CDK7/CycH/MNAT1) | CDK5/CDK7: Selectivity of CDK7 inhibition over CDK5 inhibition (CDK5) | IC50 (CDK5) | Compound concentration that caused 50% CDK7 protein degradation in A2780 cells (DC50, nM) (CDK7 protein)
CNCC(=O)N[C@H](C(=O)N1C[C@@H](Oc2cccc(OCCOCCOCCNc3ccc4c(-c5ccccc5CNc5nc(O[C@@H]6CCCNC6)nc6c(C(C)C)cnn56)nccc4c3)c2)C[C@H]1C(=O)N[C@@H]1CCCc2ccccc21)C1CCCCC1 [Compound 12] | A (A indicates [fold] > 500) | > 1 µM | A (A indicates [fold] > 500) | > 1 µM | > 1 µM | ≤ 0.1 µM | A (A indicates [fold] > 500) | > 1 µM | 
Cc1ncsc1-c1ccc(CNC(=O)[C@@H]2C[C@@H](O)CN2C(=O)[C@@H](NC(=O)C2(F)CC2)C(C)(C)C)c(OCCOCCNc2ccc3c(-c4ccccc4CNc4nc(O[C@@H]5CCCNC5)nc5c(C(C)C)cnn45)nccc3c2)c1 [Compound 20] | A (A indicates [fold] > 500) | > 1 µM | A (A indicates [fold] > 500) | > 1 µM | ≤ 0.1 µM | ≤ 0.1 µM | A (A indicates [fold] > 500) | > 1 µM | 
Cc1ncsc1-c1ccc(CNC(=O)[C@@H]2C[C@@H](O)CN2C(=O)[C@@H](NC(=O)CCOCCOCCNc2ccc3c(-c4ccccc4CNc4nc(O[C@@H]5CCCNC5)nc5c(C(C)C)cnn45)nccc3c2)C(C)(C)C)cc1 [Compound 15] | A (A indicates [fold] > 500) | > 1 µM | A (A indicates [fold] > 500) | > 1 µM | ≤ 0.1 µM | ≤ 0.1 µM | A (A indicates [fold] > 500) | > 1 µM | 
Cc1ncsc1-c1ccc(CNC(=O)[C@@H]2C[C@@H](O)CN2C(=O)[C@@H](NC(=O)C2(F)CC2)C(C)(C)C)c(OCCOCCOCCOCCNc2ccc3c(-c4ccccc4CNc4nc(O[C@@H]5CCCNC5)nc5c(C(C)C)cnn45)nccc3c2)c1 [Compound 19] | A (A indicates [fold] > 500) | > 1 µM | A (A indicates [fold] > 500) | > 1 µM | ≤ 0.1 µM | ≤ 0.1 µM | A (A indicates [fold] > 500) | > 1 µM | 
CC(C)c1cnn2c(NCc3ccccc3-c3nccc4cc(N5CCC(CN6CCN(c7ccc8c(c7)C(=O)N(C7CCC(=O)NC7=O)C8=O)CC6)CC5)ccc34)nc(O[C@@H]3CCCNC3)nc12 (stereo partly shown) [Compound 34] | A (A indicates [fold] > 500) | > 1 µM | A (A indicates [fold] > 500) | > 1 µM | ≤ 0.1 µM | ≤ 0.1 µM | A (A indicates [fold] > 500) | > 1 µM | 
CC(C)c1cnn2c(NCc3ccccc3-c3nccc4cc(NCCOCCOCCNC(=O)CNc5cccc6c5C(=O)N(C5CCC(=O)NC5=O)C6=O)ccc34)nc(O[C@@H]3CCCNC3)nc12 (stereo partly shown) [Compound 7] | A (A indicates [fold] > 500) | > 1 µM | A (A indicates [fold] > 500) | > 1 µM | 0.1 to 1 µM | ≤ 0.1 µM | A (A indicates [fold] > 500) | > 1 µM | B or A
CC(C)c1cnn2c(NCc3ccccc3-c3nccc4cc(NCC5CCN(CC6CCN(c7ccc8c(c7)C(=O)N(C7CCC(=O)NC7=O)C8=O)CC6)CC5)ccc34)nc(O[C@@H]3CCCNC3)nc12 (stereo partly shown) [Compound 30] | B (B indicates 50 < [fold] ≤ 500) | > 1 µM | A (A indicates [fold] > 500) | > 1 µM | ≤ 0.1 µM | ≤ 0.1 µM | B (B indicates 50 < [fold] ≤ 500) | > 1 µM | 
Cc1ncsc1-c1ccc(CNC(=O)[C@@H]2C[C@@H](O)CN2C(=O)[C@@H](NC(=O)C2(F)CC2)C(C)(C)C)c(OCCN2CCC(N3CCC(CNc4ccc5c(-c6ccccc6CNc6nc(O[C@@H]7CCCNC7)nc7c(C(C)C)cnn67)nccc5c4)CC3)CC2)c1 [Compound 25] | A (A indicates [fold] > 500) | > 1 µM | A (A indicates [fold] > 500) | > 1 µM | ≤ 0.1 µM | ≤ 0.1 µM | A (A indicates [fold] > 500) | > 1 µM | 
CC(C)c1cnn2c(NCc3ccccc3-c3nccc4cc(NCCOCCOCCNC(=O)CNc5ccc6c(c5)C(=O)N(C5CCC(=O)NC5=O)C6=O)ccc34)nc(O[C@@H]3CCCNC3)nc12 (stereo partly shown) [Compound 10] | A (A indicates [fold] > 500) | > 1 µM | A (A indicates [fold] > 500) | > 1 µM | 0.1 to 1 µM | ≤ 0.1 µM | A (A indicates [fold] > 500) | > 1 µM | B or A
Cc1cc([C@@H](C(=O)N2C[C@H](O)C[C@H]2C(=O)NCc2ccc(-c3scnc3C)cc2OCCOCCOCCNc2ccc3c(-c4ccccc4CNc4nc(O[C@@H]5CCCNC5)nc5c(C(C)C)cnn45)nccc3c2)C(C)C)on1 [Compound 26] | A (A indicates [fold] > 500) | > 1 µM | A (A indicates [fold] > 500) | > 1 µM | > 1 µM | ≤ 0.1 µM | A (A indicates [fold] > 500) | > 1 µM | 
